According to US10738028B2, “Spiro three-membered ring, spiro five-membered ring peptide deformylase inhibitor and use thereof in antibacteria and anti-tumor” (priority 2016, dated 2020):
≈ marks a conversion by molar mass, not a printed value.

Columns and labels:
Format in all cases: cell-based
[1] = tested on: HCT-116 colorectal cancer cell line; assay: CCK-8 proliferation inhibition; conditions: Homo sapiens, HCT-116, 72 h, concentration of 30 μM; 72 hours; CCK-8; read-out: HCT116 inhibition rate/%
Outline: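 Growth inhibition is read by CCK-8 (1:10 dilution) after 72 h of compound exposure. HCT-116 cells grow in McCoy's 5A containing 10% newborn bovine serum at 2000 cells/well, with 1‰ DMSO as vehicle control.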

[2] = tested on: methicillin-sensitive Staphylococcus epidermidis (MSSE); assay: MIC, two-fold agar dilution (CLSI), clinical isolates
From the text: (§1) 1. The invention adopts the two-fold agar dilution method recommended by the operating procedure of antimicrobial susceptibility testing set by American Clinical and Laboratory Standards Institute (CLSI) to determine the Minimum Inhibitory Concentration (MIC) of the test samples against the tested strains.

[3] = tested on: Streptococcus pneoumoniae (SPN); assay: as above
From the text: as §1

[4] = tested on: methicillin-sensitive Staphylococcus aureus (MSSA); assay: as above
From the text: as §1

[5] = tested on: methicillin-resistant Staphylococcus aureus (MRSA); assay: as above
From the text: as §1

[6] = tested on: Moraxella catarrhalis (BCA); assay: as above; conditions: for Anti-bacterial activity (MIC), strain BCA 14-10: clinical isolate BCA 14-10
From the text: as §1

[7] = tested on: methicillin-resistant Staphylococcus epidermidis (MRSE); assay: as above
From the text: as §1

[8] = tested on: Escherichia coli (including ESBLs, non-ESBLs); assay: as above
From the text: as §1

[9] = tested on: Enterococcus faecalis (EFA); assay: as above
From the text: as §1

[10] = tested on: Enterococcus faecium (EFM); assay: as above
From the text: as §1

`O=CN(O)C[C@@H](CC1CCCC1)C(=O)N1CC2(CC2)C[C@H]1C(=O)Nc1cc[nH]n1` [Example 31, (S)-5-((R)-3-cyclopentyl-2-((N-hydroxyformamido)methyl)propionyl)-N-(1H-pyrazol-3-yl)-5-azaspiro[2.4]heptane-6-carboxamide] showed an inhibition at 30 µM [1] of 19%, an MIC (anti-bacterial activity) ([2]; strain MSSE 15-3) of 2 µg/mL (≈ 4.96 µM) and an MIC (anti-bacterial activity) ([2]; strain MSSE 15-4) of 2 µg/mL (≈ 4.96 µM). It also gave an MIC (anti-bacterial activity) ([2]; strain MSSE 15-5) of 2 µg/mL (≈ 4.96 µM), an MIC (anti-bacterial activity) ([2]; strain MSSE 15-6) of 2 µg/mL (≈ 4.96 µM) and an MIC (anti-bacterial activity) ([3]; strain SPN 16-2) of 1 µg/mL (≈ 2.48 µM). The MIC (anti-bacterial activity) ([3]; strain SPN 16-4) was 16 µg/mL (≈ 39.7 µM), the MIC (anti-bacterial activity) ([4]; strain MSSA 15-3) was 2 µg/mL (≈ 4.96 µM) and the MIC (anti-bacterial activity) ([4]; strain MSSA 15-4) was 2 µg/mL (≈ 4.96 µM). The MIC (anti-bacterial activity) ([4]; strain MSSA 15-5) was 2 µg/mL (≈ 4.96 µM), the MIC (anti-bacterial activity) ([4]; strain MSSA 15-6) was 2 µg/mL (≈ 4.96 µM) and the MIC (anti-bacterial activity) ([5]; strain MRSA 15-1) was 2 µg/mL (≈ 4.96 µM). The MIC (anti-bacterial activity) ([5]; strain MRSA 15-2) was 2 µg/mL (≈ 4.96 µM), the MIC (anti-bacterial activity) ([5]; strain MRSA 15-3) was 2 µg/mL (≈ 4.96 µM) and the MIC (anti-bacterial activity) ([5]; strain MRSA 15-4) was 2 µg/mL (≈ 4.96 µM). For the same compound, the Anti-bacterial activity (MIC), strain BCA 14-10 [6] was 2 µg/mL, the MIC (anti-bacterial activity) ([6]; strain BCA 14-1) was 4 µg/mL (≈ 9.91 µM) and the MIC (anti-bacterial activity) ([6]; strain BCA 14-4) was 16 µg/mL (≈ 39.7 µM). The MIC (anti-bacterial activity) ([6]; strain BCA 14-5) was 2 µg/mL (≈ 4.96 µM), the MIC (anti-bacterial activity) ([6]; strain BCA 14-6) was 8 µg/mL (≈ 19.8 µM) and the MIC (anti-bacterial activity) ([6]; strain BCA 14-7) was 2 µg/mL (≈ 4.96 µM). For the same compound, the MIC (anti-bacterial activity) ([6]; strain BCA 14-8) was 4 µg/mL (≈ 9.91 µM), the MIC (anti-bacterial activity) ([7]; strain MRSE 15-1) was 0.5 µg/mL (≈ 1.24 µM) and the MIC (anti-bacterial activity) ([7]; strain MRSE 15-2) was 2 µg/mL (≈ 4.96 µM). It also gave an MIC (anti-bacterial activity) ([7]; strain MRSE 15-3) of 2 µg/mL (≈ 4.96 µM), an MIC (anti-bacterial activity) ([7]; strain MRSE 15-7) of 2 µg/mL (≈ 4.96 µM) and an MIC (anti-bacterial activity) ([8]; strain ECO+ 15-1) of 32 µg/mL (≈ 79.3 µM). The MIC (anti-bacterial activity) ([8]; strain ECO+ 15-2) was over 32 µg/mL, the MIC (anti-bacterial activity) ([8]; strain ECO+ 15-3) was over 32 µg/mL and the MIC (anti-bacterial activity) ([8]; strain ECO+ 15-4) was over 32 µg/mL. It also gave an MIC (anti-bacterial activity) ([8]; strain ECO− 15-1) of over 32 µg/mL, an MIC (anti-bacterial activity) ([8]; strain ECO− 15-2) of over 32 µg/mL and an MIC (anti-bacterial activity) ([8]; strain ECO− 15-3) of over 32 µg/mL. The MIC (anti-bacterial activity) ([8]; strain ECO− 15-4) was over 32 µg/mL, the MIC (anti-bacterial activity) ([9]; strain EFA 15-1) was 32 µg/mL (≈ 79.3 µM) and the MIC (anti-bacterial activity) ([9]; strain EFA 15-2) was 32 µg/mL (≈ 79.3 µM). It also gave an MIC (anti-bacterial activity) ([9]; strain EFA 15-3) of 32 µg/mL (≈ 79.3 µM), an MIC (anti-bacterial activity) ([9]; strain EFA 15-4) of 32 µg/mL (≈ 79.3 µM) and an MIC (anti-bacterial activity) ([9]; strain EFA 15-5) of 32 µg/mL (≈ 79.3 µM). For the same compound, the MIC (anti-bacterial activity) ([9]; strain EFA 15-6) was 32 µg/mL (≈ 79.3 µM), the MIC (anti-bacterial activity) ([9]; strain EFA 15-9) was 32 µg/mL (≈ 79.3 µM) and the MIC (anti-bacterial activity) ([10]; strain EFM 15-1) was 4 µg/mL (≈ 9.91 µM). For the same compound, the MIC (anti-bacterial activity) ([10]; strain EFM 15-2) was 4 µg/mL (≈ 9.91 µM), the MIC (anti-bacterial activity) ([10]; strain EFM 15-3) was 2 µg/mL (≈ 4.96 µM) and the MIC (anti-bacterial activity) ([10]; strain EFM 15-4) was 4 µg/mL (≈ 9.91 µM). For the same compound, the MIC (anti-bacterial activity) ([10]; strain EFM 15-5) was 2 µg/mL (≈ 4.96 µM) and the MIC (anti-bacterial activity) ([10]; strain EFM 15-6) was 4 µg/mL (≈ 9.91 µM).

`O=CN(O)C[C@@H](CC1CCCC1)C(=O)N1CC2(CC2)C[C@H]1C(=O)N1CCS(=O)(=O)CC1` [Example 35, N—((R)-2-(cyclopentylmethyl)-3-((S)-6-(1,1-dioxythiomorpholine-4-carbonyl)-5-azaspiro[2.4]heptane-5-yl)-3-propylcarbonyl)-N-hydroxyformamide] gave an inhibition at 30 µM [1] of -1%, an MIC (anti-bacterial activity) ([2]; strain MSSE 15-3) of 32 µg/mL (≈ 70.2 µM) and an MIC (anti-bacterial activity) ([2]; strain MSSE 15-4) of 32 µg/mL (≈ 70.2 µM). For the same compound, the MIC (anti-bacterial activity) ([2]; strain MSSE 15-5) was 32 µg/mL (≈ 70.2 µM), the MIC (anti-bacterial activity) ([2]; strain MSSE 15-6) was 32 µg/mL (≈ 70.2 µM) and the MIC (anti-bacterial activity) ([3]; strain SPN 16-2) was 16 µg/mL (≈ 35.1 µM). The MIC (anti-bacterial activity) ([3]; strain SPN 16-4) was 32 µg/mL (≈ 70.2 µM), the MIC (anti-bacterial activity) ([4]; strain MSSA 15-3) was 32 µg/mL (≈ 70.2 µM) and the MIC (anti-bacterial activity) ([4]; strain MSSA 15-4) was 32 µg/mL (≈ 70.2 µM). It also gave an MIC (anti-bacterial activity) ([4]; strain MSSA 15-5) of 32 µg/mL (≈ 70.2 µM), an MIC (anti-bacterial activity) ([4]; strain MSSA 15-6) of 32 µg/mL (≈ 70.2 µM) and an MIC (anti-bacterial activity) ([5]; strain MRSA 15-1) of 16 µg/mL (≈ 35.1 µM). For the same compound, the MIC (anti-bacterial activity) ([5]; strain MRSA 15-2) was 32 µg/mL (≈ 70.2 µM), the MIC (anti-bacterial activity) ([5]; strain MRSA 15-3) was 16 µg/mL (≈ 35.1 µM) and the MIC (anti-bacterial activity) ([5]; strain MRSA 15-4) was 32 µg/mL (≈ 70.2 µM). The Anti-bacterial activity (MIC), strain BCA 14-10 [6] was 32 µg/mL, the MIC (anti-bacterial activity) ([6]; strain BCA 14-1) was 32 µg/mL (≈ 70.2 µM) and the MIC (anti-bacterial activity) ([6]; strain BCA 14-4) was 32 µg/mL (≈ 70.2 µM). The MIC (anti-bacterial activity) ([6]; strain BCA 14-5) was 16 µg/mL (≈ 35.1 µM), the MIC (anti-bacterial activity) ([6]; strain BCA 14-6) was 32 µg/mL (≈ 70.2 µM) and the MIC (anti-bacterial activity) ([6]; strain BCA 14-7) was 32 µg/mL (≈ 70.2 µM). For the same compound, the MIC (anti-bacterial activity) ([6]; strain BCA 14-8) was 32 µg/mL (≈ 70.2 µM), the MIC (anti-bacterial activity) ([7]; strain MRSE 15-1) was 16 µg/mL (≈ 35.1 µM) and the MIC (anti-bacterial activity) ([7]; strain MRSE 15-2) was 32 µg/mL (≈ 70.2 µM). It also gave an MIC (anti-bacterial activity) ([7]; strain MRSE 15-3) of 32 µg/mL (≈ 70.2 µM), an MIC (anti-bacterial activity) ([7]; strain MRSE 15-7) of 32 µg/mL (≈ 70.2 µM) and an MIC (anti-bacterial activity) ([8]; strain ECO+ 15-1) of 32 µg/mL (≈ 70.2 µM). It also gave an MIC (anti-bacterial activity) ([8]; strain ECO+ 15-2) of over 32 µg/mL, an MIC (anti-bacterial activity) ([8]; strain ECO+ 15-3) of over 32 µg/mL and an MIC (anti-bacterial activity) ([8]; strain ECO+ 15-4) of over 32 µg/mL. For the same compound, the MIC (anti-bacterial activity) ([8]; strain ECO− 15-1) was over 32 µg/mL, the MIC (anti-bacterial activity) ([8]; strain ECO− 15-2) was over 32 µg/mL and the MIC (anti-bacterial activity) ([8]; strain ECO− 15-3) was over 32 µg/mL. The MIC (anti-bacterial activity) ([8]; strain ECO− 15-4) was over 32 µg/mL, the MIC (anti-bacterial activity) ([9]; strain EFA 15-1) was 32 µg/mL (≈ 70.2 µM) and the MIC (anti-bacterial activity) ([9]; strain EFA 15-2) was 32 µg/mL (≈ 70.2 µM). The MIC (anti-bacterial activity) ([9]; strain EFA 15-3) was 32 µg/mL (≈ 70.2 µM), the MIC (anti-bacterial activity) ([9]; strain EFA 15-4) was 32 µg/mL (≈ 70.2 µM) and the MIC (anti-bacterial activity) ([9]; strain EFA 15-5) was 32 µg/mL (≈ 70.2 µM). For the same compound, the MIC (anti-bacterial activity) ([9]; strain EFA 15-6) was 32 µg/mL (≈ 70.2 µM), the MIC (anti-bacterial activity) ([9]; strain EFA 15-9) was 32 µg/mL (≈ 70.2 µM) and the MIC (anti-bacterial activity) ([10]; strain EFM 15-1) was 16 µg/mL (≈ 35.1 µM). For the same compound, the MIC (anti-bacterial activity) ([10]; strain EFM 15-2) was 16 µg/mL (≈ 35.1 µM), the MIC (anti-bacterial activity) ([10]; strain EFM 15-3) was 16 µg/mL (≈ 35.1 µM) and the MIC (anti-bacterial activity) ([10]; strain EFM 15-4) was 16 µg/mL (≈ 35.1 µM). It also gave an MIC (anti-bacterial activity) ([10]; strain EFM 15-5) of 16 µg/mL (≈ 35.1 µM) and an MIC (anti-bacterial activity) ([10]; strain EFM 15-6) of 16 µg/mL (≈ 35.1 µM).
